Data reported in patent US20070026478A1, “Hemiasterlin affinity probes and their uses” (WYETH, priority 2002, published 2007).
Values joined by “and” are separate entries in the source; they are usually repeats but may differ in a detail not shown here. Identical values can stand only once. Like-named read-outs stand apart in the source and are kept apart here. Marks after values point to notes of the source that are not given here.

How the values were obtained:
α-tubulin = molecular target: T1, α-tubulin (Bos taurus, UniProt P81947+Q6B856); assay: Subtilisin digestion of tubulin after incubation with various compounds; format: biochemical, bovine; settings: 50 μM drug, subtilisin up to 60 min at room temperature
T1 construct: MAP-rich bovine brain tubulin (99% purity), Hela cell tubulin (90% purity); purchased Cytoskeleton (Denver, Colo.); host or cells: bovine brain
Procedure: Tubulin (5 μg) was incubated with 50 μM drug at room temperature for 25 minutes and then digested under native conditions with subtilisin (0.05 μg) for 0, 5, 10, 15, 30 and 60 min at room temperature. Enzymatic digestion was stopped with 1 mM PMSF and samples were resolved by SDS-PAGE under conditions that allowed separation of α- and β-tubulin subunits. Gels were then fixed and stained with Coomassie blue.

tubulin [1] = molecular target: T2, tubulin (Bos taurus, UniProt P81947+Q6B856); assay: Separation of polymerized and free tubulin by centrifugation; format: biochemical, bovine; settings: 50 μM drug, centrifugation at 10,000 g and 100,000 g
T2 construct: MAP-rich bovine brain tubulin (99% purity), Hela cell tubulin (90% purity); purchased Cytoskeleton (Denver, Colo.); host or cells: bovine brain
Procedure: Tubulin (5 μg) was incubated with 50 μM drug at room temperature for 25 minutes and then centrifuged at either 10,000 g for 15 minutes in a tabletop microfuge or at 100,000 g for 15 minutes in an airfuge. The supernatant was carefully removed to a fresh tube to obtain free tubulin and the pellet was solubilized in SDS-PAGE sample buffer.

tubulin [2] = molecular target: T2, tubulin; assay: Competition of [3H]-Probe 2 photolabeling of tubulin; format: binding, bovine
Procedure: (§1) Alternatively, a cytosolic preparation of KB-3-1 cell lysates (50 μg) or KB-3-1 cells (40,000 cells) were used in the place of purified tubulin above. The supernatant of mechanically disrupted cells centrifuged at 100,000×g was used as a cytosolic preparation. K-3-1 cells were prepared by growing KB-3-1 cells in a 96-well plate and rinsing them with serum free medium.
Competition binding experiments were performed as described in Section 7.1.5. […] Samples were then irradiated for 2 hours at 4° C. and evaluated by SDS-PAGE and fluorography.

bovine brain tubulin [3] = molecular target: T3, bovine brain tubulin (Bos taurus, UniProt P81947+Q6B856); assay: Competition of [3H]-Probe 1 photolabeling of tubulin; format: binding; settings: for Probe 1 photolabeling of tubulin (% of no-competitor control): control (no competitor) = 100; for IC50: read-out: IC50 for inhibition of Probe 1 photolabeling of tubulin
T3 construct: MAP-rich bovine brain tubulin (99% purity), Hela cell tubulin (90% purity); purchased Cytoskeleton (Denver, Colo.); host or cells: bovine brain
Procedure: as §1
If whole cells were used, Laemmli sample buffer was then added to lyse the cells.
Low grade SDS (Sigma, catalog No. L5750) was used in the running buffer, when needed, to allow separation of α and β-tubulin subunits. Gels were fixed, stained with Coomassie blue from BioRad (Hercules, Calif.) to ensure equal loading of protein, and sliced. […] Alternatively, gels were incubated with EN^3HANCE according to the manufacturer's instructions (Life Sciences Products, Inc.), washed, and dried prior to exposure of the gel to Biomax MX film from Kodak (Rochester, N.Y.) for fluorography.
After incubation for 30 minutes at 37° C., samples were irradiated with 360 nm UV light for 30 minutes and separated by SDS-PAGE. Gels were exposed to film using fluorographic techniques.
In particular, photolabeling experiments were performed as described in section 7.1.5 above, at both room temperature and at 37° C.

bovine brain tubulin [4] = molecular target: T3, bovine brain tubulin; assay: Reversible binding affinity assay (tubulin fluorescence)
Procedure: The affinity of both HTI-286 and of non-radiolabled Probe 1 and Probe 2, to bovine brain tubulin was determined by previously published methods (Krishnamurthy et al., Biochem., submitted). Briefly, 5 mg/mL […] tubulin prepared in PEM buffer was pre-incubated with buffer or varying concentrations of test agents in individual quartz cuvettes. The intrinsic tryptophan fluorescence of tubulin (excitation at 560 nm and maximal emission at 580 nm) was measured after pre-incubation for 90 minutes. The change in fluorescence intensity at 580 nm in the presence of compound was fitted to a quadratic equation to obtain apparent dissociation constants (KD) of the test agents.

bovine MAP-rich tubulin = molecular target: T4, bovine MAP-rich tubulin (Bos taurus, UniProt P81947+Q6B856); assay: Tubulin polymerization assay in a cell-free system; format: biochemical; settings: 0.3 μM compound
T4 construct: MAP-rich bovine brain tubulin (99% purity), Hela cell tubulin (90% purity); purchased Cytoskeleton (Denver, Colo.); host or cells: bovine brain
Procedure: In vitro tubulin polymerization assays were performed according to procedures that have been described elsewhere (Loganzo et al., Cancer Res. 2003, 63:1838-1845). Briefly, bovine MAP-rich tubulin (final concentration 1.5 mg/mL) was dissolved in cold PEM buffer containing 1 mM GTP (GPEM) and centrifuged at 12,000×g for 10 minutes at 4° C. The tubulin solution (100 μL/well) was added rapidly to wells of a low-volume, 96-well plate already containing duplicate aliquots (10 μL) of test compounds in GPEM. Final compound concentrations were 0.3 μM. Control wells contained the same final concentration of DMSO (0.3%). After initiation of the reaction, absorbance at 340 nm was measured every minute for 60 minutes at 24° C. using a SpectraMax Plus plate reader (Molecular Devices, Sunnyvale, Calif.). An increase in absorbance over time indicated an increase in turbidity resulting from tubulin polymerization.

KB cells = assay: Cell proliferation assay in tissue culture (SRB); format: cell-based
Procedure: Cell proliferation studies were performed according to procedures described by Loganzo et al. (Cancer Res. 2003, 63:1838-1845). Briefly, KB cells were plated in 96-well plates in 100 μL media at densities pre-determined to produce 60-90% confluence at the time of analysis. Compounds, which were serially diluted into media as 2× stocks, were added to cells in duplicate. After 72 hours of incubation, cell survival was assayed by the SRB assay as described (Rabindran et al., C. Cancer Res. 1998, 58:5850-5858). IC50 values (i.e. the concentration of drug needed to inhibit cell growth by 50%) were used to evaluate drug potency.

[5] = molecular target: microtubule associated protein (MAP)-rich bovine brain tubulin (bovine) (UniProt P81947); assay: 100 µM HTI-286 against 0.25 µM [3H]-Probe 1 photolabeling of tubulin, room temperature
[6] = molecular target: α-tubulin of bovine brain tubulin (bovine) (UniProt P81947); assay: 1 mM HTI-286 against 2.5 µM [3H]-Probe 1 photolabeling, fluorography
[7] = molecular target: microtubule associated protein (MAP)-rich bovine brain tubulin (bovine) (UniProt P81947)
[8] = molecular target: microtubule associated protein (MAP)-rich bovine brain tubulin (bovine) (UniProt P81947); assay: 100 µM HTI-286 against 0.25 µM [3H]-Probe 1 photolabeling of tubulin, 37° C.
[9] = molecular target: microtubule associated protein (MAP)-rich bovine brain tubulin (bovine) (UniProt P81947); assay: reversible binding to bovine brain tubulin (range given in Table 1)
[10] = molecular target: microtubule associated protein (MAP)-rich bovine brain tubulin (bovine) (UniProt P81947); assay: 100 µM HTI-286 against 0.25 µM [3H]-Probe 2 photolabeling of tubulin, room temperature
[11] = molecular target: microtubule associated protein (MAP)-rich bovine brain tubulin (bovine) (UniProt P81947); assay: 100 µM non-radiolabeled Probe 1 against [3H]-Probe 1, tubulin: radiolabeled probe 2.5:2.5
[12] = molecular target: microtubule associated protein (MAP)-rich bovine brain tubulin (bovine) (UniProt P81947); assay: 100 µM non-radiolabeled Probe 1 against 0.25 µM [3H]-Probe 1 photolabeling of tubulin, 37° C.
[13] = molecular target: microtubule associated protein (MAP)-rich bovine brain tubulin (bovine) (UniProt P81947); assay: 100 µM non-radiolabeled Probe 1 against [3H]-Probe 1, tubulin: radiolabeled probe 2.5:0.25
[14] = molecular target: microtubule associated protein (MAP)-rich bovine brain tubulin (bovine) (UniProt P81947); assay: 100 µM non-radiolabeled Probe 1 against 0.25 µM [3H]-Probe 1 photolabeling of tubulin, room temperature
[15] = molecular target: microtubule associated protein (MAP)-rich bovine brain tubulin (bovine) (UniProt P81947); assay: 100 µM non-radioactive Probe 2 against 0.25 µM [3H]-Probe 2 photolabeling of tubulin, room temperature
[16] = molecular target: microtubule associated protein (MAP)-rich bovine brain tubulin (bovine) (UniProt P81947); assay: change of fluorescence of rhodamine-labeled tubulin
[17] = 100 μM competitor, 2.5 μM tubulin, 0.25 μM [3H]-Probe 2, room temperature
[18] = Room Temp., 2.5 μM tubulin, 0.25 μM radiolabeled Probe 1, 100 μM competitor
[19] = room temperature, 2.5 μM tubulin, 0.25 μM radiolabeled Probe 1
[20] = room temperature, 400-fold molar excess (100 μM) competitor, 2.5 μM tubulin, 0.25 μM radiolabeled Probe 1

Compound	protection of α-tubulin from subtilisin cleavage (α-tubulin)	protein recovered in pellet fractions (tubulin aggregation) (tubulin [1])	inhibition of Probe 2 labeling of tubulin (tubulin [2]; [17])	Probe 1 photolabeling of tubulin (% of no-competitor control) (bovine brain tubulin [3]; 37° C., 100 μM competitor)	Probe 1 photolabeling of tubulin (% of no-competitor control) (bovine brain tubulin [3]; [18])	reduction of Probe 1 photolabeling of tubulin (bovine brain tubulin [3]; [20])	tubulin polymerization (% inhibition) [7]	Kd [9]	further results
CC[C@H](C)[C@@H]([C@@H](CC(=O)N1CCC[C@H]1[C@H](OC)[C@@H](C)C(=O)N[C@@H](Cc1ccccc1)c1nccs1)OC)N(C)C(=O)[C@@H](NC(=O)[C@H](C(C)C)N(C)C)C(C)C [Dolastatin-10]	unable to cleave α-tubulin even after 60 minutes	significant amount of protein was recovered	27%	26^† %	13 ± 3%	approximately 87%			reduction of Probe 1 photolabeling of tubulin (bovine brain tubulin [3]; 37° C.): about 75%; IC50 (bovine brain tubulin [3]; [19]): 5000 nM
Nc1nc2c(ncn2[C@@H]2O[C@H](COP(=O)(O)OP(=O)(O)OP(=O)(O)O)[C@@H](O)[C@H]2O)c(=O)[nH]1 [GTP, guanosine-5′-triphosphate]									effect on incorporation of Probe 1 into tubulin (bovine brain tubulin [3]; pre-incubation with between 0 and 100 μM): did not significantly inhibit incorporation
CC(=O)O[C@H]1C(=O)[C@@]2(C)[C@H]([C@H](OC(=O)c3ccccc3)[C@]3(O)C[C@H](OC(=O)[C@H](O)[C@@H](NC(=O)c4ccccc4)c4ccccc4)C(C)=C1C3(C)C)[C@]1(OC(C)=O)CO[C@@H]1C[C@@H]2O [Paclitaxel]	unable to cleave α-tubulin even after 60 minutes	significant amount of protein was recovered		173 ± 7%	83 ± 41%	almost no effect			Probe 2 photolabeling, % of the control value (tubulin [2]; [17]): 113%; enhancement of Probe 2 photolabeling (tubulin [2]; higher concentrations of competitor): this effect was lost; enhancement of Probe 1 photolabeling of tubulin (bovine brain tubulin [3]; 37° C.): 73%
CN[C@H](C(=O)N[C@H](C(=O)N(C)[C@H](/C=C(\C)C(=O)O)C(C)C)C(C)(C)c1ccc(C(=O)c2ccccc2)cc1)C(C)(C)c1ccccc1 [Probe 2, N,β,β-trimethyl-L-phenylalanyl-4-benzoyl-N-[(1S,2E)-3-carboxy-1-isopropyl-2-butenyl]-N,β,β-trimethyl-L-phenylalaninamide]			12%						Kd (bovine brain tubulin [4]; Table 1, binding to bovine brain tubulin, read-out: KD): 1100 to 6000 nM; KD relative to KD of HTI-286 (bovine brain tubulin [4]; fluorescence method): approximately 6 fold; Kd (bovine brain tubulin [4]; rhodamine-labeled tubulin, 90 minutes pre-incubation, read-out: apparent binding constant (KD), fluorescence method): 3600 nM; inhibition at 0.3 µM (bovine MAP-rich tubulin): 69%; IC50 (KB cells; 72 hours): 22.4 ± 0.7 nM; IC50 (KB cells; Homo sapiens, KB, 72 h): 22 nM
CC[C@]1(O)C[C@@H]2CN(CCc3c([nH]c4ccccc34)[C@@](C(=O)OC)(c3cc4c(cc3OC)N(C)[C@H]3[C@@](O)(C(=O)OC)[C@H](OC(C)=O)[C@]5(CC)C=CCN6CC[C@]43[C@@H]65)C2)C1 [Vinblastine]	unable to cleave α-tubulin even after 60 minutes	significant amount of protein was recovered	64%	52 ± 0.5%	28 ± 1%	approximately 72%			reduction of Probe 1 photolabeling of tubulin (bovine brain tubulin [3]; 37° C.): about 50%; IC50 (bovine brain tubulin [3]; [19]): 22000 nM
HTI-286 (N,β,β-trimethyl-L-phenylalanyl-N1-[(1S,2E)-3-carboxy-1-isopropylbut-2-enyl]-N1,3-dimethyl-L-valinamide trifluoroacetate) (peptide)							87.5%	400 nM and 800 nM	Inhibition (%) (labeling against control = 100) [5]: 27%; percent inhibition of Probe 1 incorporation [6]: > 50%; Inhibition (%) (labeling against control = 100) [8]: 47%; percent inhibition of Probe 2 labeling (so in the source) [10]: 45%
Probe 1 (4-benzoyl-N,β,β-trimethyl-L-phenylalanyl-N1-[(1S,2E)-3-carboxy-1-isopropylbut-2-enyl]-N1,3-dimethyl-L-valinamide) (peptide)							88%	800 nM	percent inhibition of tubulin labeling [11]: 82%; Inhibition (%) (labeling against control = 100) [12]: 24%; percent inhibition of tubulin labeling [13]: 93%; Inhibition (%) (labeling against control = 100) [14]: 12%
Probe 2 (N,β,β-trimethyl-L-phenylalanyl-4-benzoyl-N-[(1S,2E)-3-carboxy-1-isopropyl-2-butenyl]-N,β,β-trimethyl-L-phenylalaninamide) (peptide)							69%	1100 nM and 6000 nM	percent inhibition of Probe 2 labeling (so in the source) [15]: 12%; fold KD against HTI-286 [16]: 6 fold
